Source: patent US6642392B1 (priority 1997, dated 2003)
Read-outs that look alike come from different tables or passages of the source.

Legend:
Type in all cases: in vivo
[1] = system: Puccinia recondita; assay: Test B: wheat leaf rust, preventive spray on wheat seedlings; conditions: for Test B disease control rating (100 = 100% disease control, 0 = no disease control): rating relative to controls; for Test B disease control rating: wheat leaf rust
Outline: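 Wheat seedlings were sprayed to run-off with compound (3% acetone, 250 ppm Trem 014), then inoculated with P. recondita spores the next day. They were held 24 h saturated at 20 °C, then 6 days at 20 °C. Ratings are 0–100% disease control versus controls.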

[2] = system: Pyricularia oryzae; conditions: for Test C disease control rating (100 = 100% disease control, 0 = no disease control): rating relative to controls; for Test C disease control rating: rice blast
[3] = system: Eiysiphe graminis f. sp. tritici; assay: Test A: wheat powdery mildew, preventive spray on wheat seedlings; conditions: for Test A disease control rating (100 = 100% disease control, 0 = no disease control): rating relative to controls; for Test A disease control rating: wheat powdery mildew
Outline: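 Compounds (3% acetone, 250 ppm Trem 014) sprayed to run-off on wheat seedlings, inoculated next day with spore dust. Incubated 7 days at 20° C before disease rating, 0–100% control relative to untreated controls.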

[4] = system: Botrytis cinerea; assay: Test E: gray mold, preventive spray on cucumber seedlings; conditions: for Test E disease control rating (100 = 100% disease control, 0 = no disease control): rating relative to controls; for Test E disease control rating: gray mold on cucumber
Outline: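 Compounds in 3% acetone were suspended with 250 ppm Trem 014 surfactant and sprayed to run-off on cucumber seedlings. B. cinerea spores were inoculated next day, then 48 h saturated humidity at 20° C and 5 days at 20° C. Disease control rated 0–100% versus controls.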

[5] = system: Phytophthora infestans; conditions: for Test D disease control rating (100 = 100% disease control, 0 = no disease control): rating relative to controls; for Test D disease control rating: tomato late blight
[6] = wheat seedlings sprayed to run-off, inoculated the following day, unmarked compounds (standard test rate)
[7] = rice seedlings sprayed to run-off, inoculated the following day, unmarked compounds (standard test rate)
[8] = cucumber seedlings sprayed to run-off, inoculated the following day, unmarked compounds (standard test rate)
[9] = tomato seedlings sprayed to run-off, inoculated the following day, unmarked compounds (standard test rate)
[10] = 100 = 100% disease control, 0 = no control, unmarked entries (standard test concentration)
[11] = 100 = 100% disease control, 0 = no control relative to controls, unmarked entries (standard test concentration)
[12] = tested at 40 ppm, wheat seedlings

Structure (SMILES) | Test B disease control rating [1, 10] [%] | Test C disease control rating [2, 10] [%] | Test A disease control rating [3, 11] [%] | Test E disease control rating [4, 10] [%] | Test D disease control rating [5, 10] [%] | other results
CCC1(C(=O)NC(C)C=Cc2cc(F)ccc2F)C(C)C1(Cl)Cl (centres unmarked) [267b] |  |  |  |  |  | Test B disease control rating (100 = 100% disease control, 0 = no disease control) [1, 6]: 0%; Test C disease control rating (100 = 100% disease control, 0 = no disease control) [2, 7]: 100%; Test A disease control rating (100 = 100% disease control, 0 = no disease control) [3, 6]: 92%; Test E disease control rating (100 = 100% disease control, 0 = no disease control) [4, 8]: 55%; Test D disease control rating (100 = 100% disease control, 0 = no disease control) [5, 9]: 0%
Cc1c(Br)cc(C#N)n1CCC(C)NC(=O)C(C#N)C(C)C(C)(C)C (mixture of isomers) [compound 73] | 28 | 53 | 30 | 11 | 0 | 
C=CC(C)(CC)C(C#N)C(=O)NC(C)COc1cc(F)ccc1Cl (mixture of isomers) [compound 298] |  |  |  |  |  | Test B disease control rating (100 = 100% disease control, 0 = no disease control) [1, 6]: 0%; Test C disease control rating (100 = 100% disease control, 0 = no disease control) [2, 7]: 99%; Test A disease control rating (100 = 100% disease control, 0 = no disease control) [3, 6]: 62%; Test E disease control rating (100 = 100% disease control, 0 = no disease control) [4, 8]: 0%; Test D disease control rating (100 = 100% disease control, 0 = no disease control) [5, 9]: 99%
C[C@H](COc1cc(Cl)cc(Cl)c1)NC(=O)C(C#N)C(C)(C)C (single isomer, unassigned) [35a] | 0 | 74 | 0 | 0 | 80 | 
C[C@H](COc1cc(F)cc(F)c1Cl)NC(=O)C(C#N)C(C)(C)C (single isomer, unassigned) [169a] | 27 | 91 | 84 | 0 | 24 | 
CCC1(C(=O)NC(C)COc2cc(F)cc(F)c2Cl)C(C)C1(Cl)Cl (centres unmarked) [compound 123] |  |  |  |  |  | Test B disease control rating ([1]; tested at 40 ppm): 0%; Test C disease control rating ([2]; tested at 40 ppm): 53%; Test A disease control rating ([3]; tested at 40 ppm): 90%; Test E disease control rating ([4]; tested at 40 ppm): 0%; Test D disease control rating ([5]; tested at 40 ppm): 0%
C[C@H](COc1cccc(F)c1F)NC(=O)C(C#N)C(C)(C)C (single isomer, unassigned) [26a] | 28 | 97 | 38 | 0 | 51 | 
Cc1c(Br)cc(C#N)n1OCC(C)NC(=O)C(C#N)C(C)C(C)(C)C (mixture of isomers) [compound 70] | 0 | 0 | 63 | 0 | 13 | 
CC(COc1c(Cl)cc(Cl)cc1Cl)NC(=O)C(C#N)C(C)(C)C (mixture of isomers) [compound 172] | 0 | 86 | 0 | 95 | 0 | 
CCC1(C(=O)NC(C)COc2c(C#N)cccc2C(F)(F)F)C(C)C1(Cl)Cl (mixture of isomers) [compound 134] | 0 | 0 | 0 | 0 | 30 | 
CCCc1ccccc1OCC(C)NC(=O)C(C#N)C(C)(C)C (mixture of isomers) [21a] | 68 | 99 | 38 | 0 | 4 | 
CCC1(C(=O)NCC=Cc2cccc(Cl)c2)C(C)C1(Cl)Cl (centres unmarked) [compound 159] | 0 | 0 | 0 | 47 | 0 | 
CC(COc1c(C#N)cccc1C(F)(F)F)NC(=O)C(C#N)C(C)(C)C (mixture of isomers) [compound 48] | 0 | 91 | 0 | 0 | 0 | 
CCC1(C(=O)NC(C)COc2cccc(CF)c2)C(C)C1(Cl)Cl (mixture of isomers) [compound 317] |  |  |  |  |  | Test B disease control rating (100 = 100% disease control, 0 = no disease control) [1, 12]: 0%; Test C disease control rating (100 = 100% disease control, 0 = no disease control) ([2]; tested at 40 ppm, rice seedlings): 85%; Test A disease control rating (100 = 100% disease control, 0 = no disease control) [3, 12]: 57%; Test E disease control rating (100 = 100% disease control, 0 = no disease control) ([4]; tested at 40 ppm, cucumber seedlings): 0%; Test D disease control rating (100 = 100% disease control, 0 = no disease control) ([5]; tested at 40 ppm, tomato seedlings): 19%
C[C@H](COc1cccc(I)c1)NC(=O)C(C#N)C(C)(C)C (single isomer, unassigned) [12a] | 68 | 91 | 86 | 0 | 0 | 
CCC1(C(=O)NC(C)COc2c(F)c(F)cc(F)c2F)C(C)C1(Cl)Cl (centres unmarked) [compound 249] |  |  |  |  |  | Test B disease control rating (100 = 100% disease control, 0 = no disease control) [1, 6]: 0%; Test C disease control rating (100 = 100% disease control, 0 = no disease control) [2, 7]: 94%; Test A disease control rating (100 = 100% disease control, 0 = no disease control) [3, 6]: 0%; Test E disease control rating (100 = 100% disease control, 0 = no disease control) [4, 8]: 0%; Test D disease control rating (100 = 100% disease control, 0 = no disease control) [5, 9]: 0%
CC(COc1ccccc1Cl)NC(=O)C(C#N)C(C)C(C)(C)C (mixture of isomers) [compound 58] |  |  |  |  |  | Test B disease control rating ([1]; tested at 40 ppm): 0%; Test C disease control rating ([2]; tested at 40 ppm): 52%; Test A disease control rating ([3]; tested at 40 ppm): 57%; Test E disease control rating ([4]; tested at 40 ppm): 0%; Test D disease control rating ([5]; tested at 40 ppm): 0%
C#CC(C)(C)C(C#N)C(=O)NC(C)COc1cc(F)ccc1Cl (mixture of isomers) [compound 193] | 0 | 100 | 0 | 55 | 0 | 
CCC1(C(=O)NC(C)COc2ccccc2Cl)C(C)C1(Cl)Cl (mixture of isomers) [81b] |  |  |  |  |  | Test B disease control rating ([1]; tested at 40 ppm): 0%; Test C disease control rating ([2]; tested at 40 ppm): 74%; Test A disease control rating ([3]; tested at 40 ppm): 85%; Test E disease control rating ([4]; tested at 40 ppm): 0%; Test D disease control rating ([5]; tested at 40 ppm): 0%
C=C(F)C(C)(C)C(C#N)C(=O)NC(C)COc1cc(F)ccc1Cl (mixture of isomers) [compound 223] |  |  |  |  |  | Test B disease control rating (100 = 100% disease control, 0 = no disease control) [1, 6]: 28%; Test C disease control rating (100 = 100% disease control, 0 = no disease control) [2, 7]: 100%; Test A disease control rating (100 = 100% disease control, 0 = no disease control) [3, 6]: 62%; Test E disease control rating (100 = 100% disease control, 0 = no disease control) [4, 8]: 0%; Test D disease control rating (100 = 100% disease control, 0 = no disease control) [5, 9]: 41%
C[C@H](COc1c(F)cc(F)cc1F)NC(=O)C(C#N)C(C)(C)C (single isomer, unassigned) [189b] | 0 | 100 | 0 | 0 | 35 | 
C#CC(C)(C=C)C(C#N)C(=O)NC(C)COc1cc(F)ccc1F (mixture of isomers) [compound 301] |  |  |  |  |  | Test B disease control rating (100 = 100% disease control, 0 = no disease control) [1, 6]: 0%; Test C disease control rating (100 = 100% disease control, 0 = no disease control) [2, 7]: 100%; Test A disease control rating (100 = 100% disease control, 0 = no disease control) [3, 6]: 62%; Test E disease control rating (100 = 100% disease control, 0 = no disease control) [4, 8]: 0%; Test D disease control rating (100 = 100% disease control, 0 = no disease control) [5, 9]: 24%
